# Measured values: ChEMBL document CHEMBL5291721, “A preclinical secondary pharmacology resource illuminates target-adverse drug reaction associations of marketed drugs” (Nat Commun, 2023)
# What was measured:
# [1] = molecular target: Gamma-aminobutyric acid receptor subunit alpha-1 (Rattus norvegicus, UniProt P62813)
# Histamine H3 receptor = Histamine H3 receptor (Homo sapiens, UniProt Q9Y5N1)
# [2] = molecular target: 5-hydroxytryptamine receptor 2B (Homo sapiens, UniProt P41595); type: functional, cell-based
# [3] = molecular target: Voltage-gated inwardly rectifying potassium channel KCNH2 (Homo sapiens, UniProt Q12809); type: functional; details: read-out: AC50
# [4] = molecular target: Vascular endothelial growth factor receptor 2 (Homo sapiens, UniProt P35968); type: functional
# [5] = molecular target: cGMP-inhibited 3',5'-cyclic phosphodiesterase 3A (Homo sapiens, UniProt Q14432); type: functional
# [6] = molecular target: 3',5'-cyclic-AMP phosphodiesterase 4A (Homo sapiens, UniProt P27815); type: functional
# Progesterone receptor = molecular target: T1, Progesterone receptor (Homo sapiens, UniProt P06401)
# T1 sequence (P06401 whole entry): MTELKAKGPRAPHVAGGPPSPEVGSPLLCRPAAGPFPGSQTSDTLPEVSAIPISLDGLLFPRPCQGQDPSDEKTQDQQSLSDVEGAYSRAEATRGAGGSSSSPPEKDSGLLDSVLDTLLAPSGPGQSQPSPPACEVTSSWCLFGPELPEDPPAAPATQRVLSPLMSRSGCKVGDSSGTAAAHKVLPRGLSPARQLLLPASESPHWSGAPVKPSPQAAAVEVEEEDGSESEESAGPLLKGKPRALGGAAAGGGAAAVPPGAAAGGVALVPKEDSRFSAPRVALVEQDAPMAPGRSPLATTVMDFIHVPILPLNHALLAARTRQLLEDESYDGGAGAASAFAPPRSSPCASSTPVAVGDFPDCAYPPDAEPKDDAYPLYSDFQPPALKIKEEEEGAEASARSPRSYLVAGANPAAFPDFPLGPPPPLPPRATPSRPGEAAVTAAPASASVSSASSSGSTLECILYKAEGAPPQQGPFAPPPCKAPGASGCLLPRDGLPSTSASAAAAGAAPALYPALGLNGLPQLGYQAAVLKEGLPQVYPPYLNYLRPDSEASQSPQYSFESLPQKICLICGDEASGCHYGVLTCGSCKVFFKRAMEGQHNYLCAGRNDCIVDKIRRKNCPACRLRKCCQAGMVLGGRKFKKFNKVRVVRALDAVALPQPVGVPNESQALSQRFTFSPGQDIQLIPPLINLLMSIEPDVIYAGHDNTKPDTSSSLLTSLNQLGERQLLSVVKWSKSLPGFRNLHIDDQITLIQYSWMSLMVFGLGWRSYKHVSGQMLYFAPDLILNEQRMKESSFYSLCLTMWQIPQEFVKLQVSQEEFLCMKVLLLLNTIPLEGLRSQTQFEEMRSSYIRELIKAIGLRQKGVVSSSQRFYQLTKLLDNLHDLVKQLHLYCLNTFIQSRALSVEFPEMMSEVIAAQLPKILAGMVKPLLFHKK
# [7] = molecular target: Sodium-dependent noradrenaline transporter (Homo sapiens, UniProt P23975)
# D(3) dopamine receptor = D(3) dopamine receptor (Homo sapiens, UniProt P35462)
# Thromboxane A2 receptor = molecular target: T2, Thromboxane A2 receptor (Homo sapiens, UniProt P21731)
# T2 sequence (P21731 whole entry): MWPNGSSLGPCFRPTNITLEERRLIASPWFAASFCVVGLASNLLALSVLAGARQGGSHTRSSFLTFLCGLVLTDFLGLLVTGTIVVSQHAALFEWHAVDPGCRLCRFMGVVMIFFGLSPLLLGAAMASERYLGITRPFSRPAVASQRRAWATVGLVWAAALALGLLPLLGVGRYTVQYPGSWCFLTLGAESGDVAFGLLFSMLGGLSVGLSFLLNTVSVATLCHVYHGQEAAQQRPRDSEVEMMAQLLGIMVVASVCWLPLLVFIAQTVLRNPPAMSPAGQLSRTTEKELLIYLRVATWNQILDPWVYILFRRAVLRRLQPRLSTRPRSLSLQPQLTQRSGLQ
# Further: assay procedure not described here.
# Chain of Histamine H3 receptor (Q9Y5N1 whole entry): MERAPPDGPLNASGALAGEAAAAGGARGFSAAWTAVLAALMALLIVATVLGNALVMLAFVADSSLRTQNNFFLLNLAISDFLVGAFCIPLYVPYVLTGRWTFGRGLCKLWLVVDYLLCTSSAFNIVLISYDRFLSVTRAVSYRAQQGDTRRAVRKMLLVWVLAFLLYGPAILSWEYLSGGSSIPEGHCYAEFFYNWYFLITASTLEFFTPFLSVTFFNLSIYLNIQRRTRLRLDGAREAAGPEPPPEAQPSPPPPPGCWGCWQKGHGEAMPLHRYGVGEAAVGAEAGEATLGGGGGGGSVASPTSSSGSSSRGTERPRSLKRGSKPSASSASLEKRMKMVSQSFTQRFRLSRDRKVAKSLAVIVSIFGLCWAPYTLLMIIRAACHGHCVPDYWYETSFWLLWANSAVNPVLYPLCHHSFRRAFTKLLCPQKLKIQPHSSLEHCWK
# Chain of Vascular endothelial growth factor receptor 2 (P35968 whole entry): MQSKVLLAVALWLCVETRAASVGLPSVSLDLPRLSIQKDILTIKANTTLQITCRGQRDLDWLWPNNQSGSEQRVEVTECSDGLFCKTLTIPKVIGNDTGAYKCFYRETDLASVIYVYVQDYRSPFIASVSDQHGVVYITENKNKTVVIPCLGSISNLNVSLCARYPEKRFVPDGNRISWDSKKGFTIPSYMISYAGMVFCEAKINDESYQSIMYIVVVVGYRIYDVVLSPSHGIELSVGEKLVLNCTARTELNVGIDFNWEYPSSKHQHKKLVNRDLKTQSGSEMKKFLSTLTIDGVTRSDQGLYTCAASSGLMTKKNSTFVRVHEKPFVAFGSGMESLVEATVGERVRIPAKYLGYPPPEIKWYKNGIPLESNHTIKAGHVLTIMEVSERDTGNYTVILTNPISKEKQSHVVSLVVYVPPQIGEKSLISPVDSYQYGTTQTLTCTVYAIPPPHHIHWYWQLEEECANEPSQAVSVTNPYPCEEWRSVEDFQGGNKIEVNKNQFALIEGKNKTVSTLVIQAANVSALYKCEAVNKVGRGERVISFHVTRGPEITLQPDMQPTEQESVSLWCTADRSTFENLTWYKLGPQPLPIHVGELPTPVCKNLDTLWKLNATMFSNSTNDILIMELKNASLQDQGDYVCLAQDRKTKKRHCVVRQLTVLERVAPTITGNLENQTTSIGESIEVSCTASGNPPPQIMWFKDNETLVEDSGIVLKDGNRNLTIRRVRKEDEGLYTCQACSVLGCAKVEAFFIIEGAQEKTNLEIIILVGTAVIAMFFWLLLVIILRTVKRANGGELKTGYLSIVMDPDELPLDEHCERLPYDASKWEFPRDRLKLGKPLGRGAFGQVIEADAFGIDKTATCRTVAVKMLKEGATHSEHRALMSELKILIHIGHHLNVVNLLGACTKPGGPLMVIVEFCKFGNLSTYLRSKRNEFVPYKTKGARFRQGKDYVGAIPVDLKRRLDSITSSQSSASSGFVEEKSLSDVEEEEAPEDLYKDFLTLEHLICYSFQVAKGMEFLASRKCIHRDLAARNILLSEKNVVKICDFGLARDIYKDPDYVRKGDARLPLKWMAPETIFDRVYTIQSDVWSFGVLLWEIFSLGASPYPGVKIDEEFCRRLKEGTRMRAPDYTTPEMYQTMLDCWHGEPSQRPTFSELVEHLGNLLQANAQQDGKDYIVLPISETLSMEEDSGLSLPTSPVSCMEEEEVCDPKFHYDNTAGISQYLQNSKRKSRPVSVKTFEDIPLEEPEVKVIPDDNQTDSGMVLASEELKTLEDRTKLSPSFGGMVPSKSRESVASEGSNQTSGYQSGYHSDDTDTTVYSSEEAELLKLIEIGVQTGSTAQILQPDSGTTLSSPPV
# Chain of Sodium-dependent noradrenaline transporter (P23975 whole entry): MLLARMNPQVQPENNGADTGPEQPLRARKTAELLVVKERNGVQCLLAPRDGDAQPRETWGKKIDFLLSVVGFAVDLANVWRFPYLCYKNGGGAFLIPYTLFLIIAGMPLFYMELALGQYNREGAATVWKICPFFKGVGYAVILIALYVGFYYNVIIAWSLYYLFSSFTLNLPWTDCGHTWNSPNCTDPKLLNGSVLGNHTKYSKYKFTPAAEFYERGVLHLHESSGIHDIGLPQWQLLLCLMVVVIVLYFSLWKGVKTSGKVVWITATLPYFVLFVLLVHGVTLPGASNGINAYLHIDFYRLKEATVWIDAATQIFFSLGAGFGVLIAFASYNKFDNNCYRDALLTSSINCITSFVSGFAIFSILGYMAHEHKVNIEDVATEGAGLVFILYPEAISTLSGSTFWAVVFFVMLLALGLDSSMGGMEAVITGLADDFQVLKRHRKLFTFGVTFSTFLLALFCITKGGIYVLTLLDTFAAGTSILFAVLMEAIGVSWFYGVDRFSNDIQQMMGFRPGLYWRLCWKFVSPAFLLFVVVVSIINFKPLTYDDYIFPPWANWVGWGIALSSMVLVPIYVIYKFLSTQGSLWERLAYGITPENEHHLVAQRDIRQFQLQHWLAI
# Chain of 5-hydroxytryptamine receptor 2B (P41595 whole entry): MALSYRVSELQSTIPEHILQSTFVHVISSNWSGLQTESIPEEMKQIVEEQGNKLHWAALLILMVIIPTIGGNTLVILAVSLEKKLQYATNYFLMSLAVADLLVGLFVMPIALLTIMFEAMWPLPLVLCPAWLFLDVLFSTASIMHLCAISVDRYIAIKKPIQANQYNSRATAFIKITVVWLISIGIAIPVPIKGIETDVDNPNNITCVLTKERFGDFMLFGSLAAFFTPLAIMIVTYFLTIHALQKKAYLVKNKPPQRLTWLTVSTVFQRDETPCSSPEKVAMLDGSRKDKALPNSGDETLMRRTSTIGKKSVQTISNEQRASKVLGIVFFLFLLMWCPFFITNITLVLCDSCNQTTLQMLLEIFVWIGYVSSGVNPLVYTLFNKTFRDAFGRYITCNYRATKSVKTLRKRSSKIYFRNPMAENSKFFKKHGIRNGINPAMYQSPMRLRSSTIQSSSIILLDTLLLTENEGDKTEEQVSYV
# Chain of Voltage-gated inwardly rectifying potassium channel KCNH2 (Q12809 whole entry): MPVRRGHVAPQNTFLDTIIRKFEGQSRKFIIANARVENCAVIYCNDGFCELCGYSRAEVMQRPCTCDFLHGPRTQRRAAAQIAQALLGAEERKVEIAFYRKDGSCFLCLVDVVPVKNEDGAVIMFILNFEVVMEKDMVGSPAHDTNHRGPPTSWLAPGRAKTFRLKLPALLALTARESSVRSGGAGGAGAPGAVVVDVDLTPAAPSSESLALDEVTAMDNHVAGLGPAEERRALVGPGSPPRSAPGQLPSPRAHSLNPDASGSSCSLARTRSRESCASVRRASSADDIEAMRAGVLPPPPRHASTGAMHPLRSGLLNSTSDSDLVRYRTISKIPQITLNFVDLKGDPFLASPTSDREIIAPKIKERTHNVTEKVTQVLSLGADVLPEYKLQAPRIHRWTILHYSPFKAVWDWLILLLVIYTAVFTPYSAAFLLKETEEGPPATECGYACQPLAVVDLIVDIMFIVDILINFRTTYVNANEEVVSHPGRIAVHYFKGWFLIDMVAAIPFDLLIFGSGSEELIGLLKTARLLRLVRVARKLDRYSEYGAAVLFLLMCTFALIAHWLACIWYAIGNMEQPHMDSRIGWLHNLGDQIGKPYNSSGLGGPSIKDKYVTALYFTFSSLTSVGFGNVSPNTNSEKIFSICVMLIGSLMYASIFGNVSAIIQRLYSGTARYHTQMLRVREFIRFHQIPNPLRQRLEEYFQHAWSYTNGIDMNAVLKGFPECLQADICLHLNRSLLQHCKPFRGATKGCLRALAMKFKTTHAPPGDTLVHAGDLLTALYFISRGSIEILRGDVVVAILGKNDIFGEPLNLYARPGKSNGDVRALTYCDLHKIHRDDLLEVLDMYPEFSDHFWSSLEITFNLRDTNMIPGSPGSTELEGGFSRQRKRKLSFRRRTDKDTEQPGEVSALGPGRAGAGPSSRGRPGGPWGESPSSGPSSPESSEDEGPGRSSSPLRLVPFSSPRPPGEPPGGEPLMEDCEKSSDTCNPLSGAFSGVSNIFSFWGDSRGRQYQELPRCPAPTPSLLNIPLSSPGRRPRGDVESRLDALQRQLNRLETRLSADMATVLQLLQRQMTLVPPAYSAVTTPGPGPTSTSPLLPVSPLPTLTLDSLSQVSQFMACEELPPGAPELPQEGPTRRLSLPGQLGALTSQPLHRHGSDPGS
# Chain of D(3) dopamine receptor (P35462 whole entry): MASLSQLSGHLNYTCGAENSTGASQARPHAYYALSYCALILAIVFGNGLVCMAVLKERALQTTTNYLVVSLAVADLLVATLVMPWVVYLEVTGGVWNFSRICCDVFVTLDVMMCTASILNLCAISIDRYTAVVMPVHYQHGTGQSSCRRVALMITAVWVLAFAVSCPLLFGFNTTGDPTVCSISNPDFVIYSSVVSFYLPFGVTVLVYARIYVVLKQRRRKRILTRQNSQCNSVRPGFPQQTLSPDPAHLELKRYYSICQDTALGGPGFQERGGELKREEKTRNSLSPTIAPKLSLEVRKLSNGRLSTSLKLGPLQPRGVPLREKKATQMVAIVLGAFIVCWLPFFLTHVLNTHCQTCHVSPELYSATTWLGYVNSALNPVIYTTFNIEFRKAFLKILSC
# Chain of Gamma-aminobutyric acid receptor subunit alpha-1 (P62813 whole entry): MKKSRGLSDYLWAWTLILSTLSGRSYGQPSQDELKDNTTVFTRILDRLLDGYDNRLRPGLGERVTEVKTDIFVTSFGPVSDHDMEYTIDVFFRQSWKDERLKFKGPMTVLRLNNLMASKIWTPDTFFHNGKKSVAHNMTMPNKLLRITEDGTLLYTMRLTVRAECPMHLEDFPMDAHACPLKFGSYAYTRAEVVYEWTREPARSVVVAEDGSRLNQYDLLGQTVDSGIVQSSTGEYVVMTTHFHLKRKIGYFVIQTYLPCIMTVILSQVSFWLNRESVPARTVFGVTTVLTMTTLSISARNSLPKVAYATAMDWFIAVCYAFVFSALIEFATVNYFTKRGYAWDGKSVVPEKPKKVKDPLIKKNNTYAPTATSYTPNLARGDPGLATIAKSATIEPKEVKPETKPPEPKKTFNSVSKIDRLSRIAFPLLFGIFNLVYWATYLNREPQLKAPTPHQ
Structure (SMILES),AC50 [1] [µM],AC50 (Histamine H3 receptor) [µM],AC50 [2] [µM],AC50 [3] [µM],AC50 [4] [µM],AC50 [5] [µM],AC50 [6] [µM],AC50 (Progesterone receptor) [µM],AC50 [7] [µM],AC50 (D(3) dopamine receptor) [µM],AC50 (Thromboxane A2 receptor) [µM]
O=c1[nH]c(=O)n(C2CCCO2)cc1F (configuration not stated) [TEGAFUR],> 30,> 30,> 30,> 30,> 30,> 30,> 30,> 30,> 30,,
CC(C)(C)C(=O)OCOC(=O)[C@@H]1N2C(=O)[C@@H](NC(=O)[C@H](N)c3ccccc3)[C@H]2SC1(C)C [PIVAMPICILLIN],> 30,> 30,> 30,> 30,> 30,> 30,> 30,> 30,> 30,> 30,
Cc1cc(OP(=O)(O)O)c2ccccc2c1OP(=O)(O)O [MENADIOL SODIUM DIPHOSPHATE],> 30,> 30,> 30,,> 30,> 30,> 30,> 30,> 30,> 30,
CCN(CC)CCc1nc(-c2ccccc2)no1 [OXOLAMINE],> 30,23.9,> 30,> 30,> 30,> 30,> 30,> 30,> 30,,
CCC(C)(C)c1ccc(CC(C)CN2C[C@@H](C)O[C@@H](C)C2)cc1 (some centres not stated) [AMOROLFINE],> 30,> 30,> 30,11,> 30,> 30,> 30,> 30,> 30,22,
COc1ccccc1N1CCN(CC(O)COc2cccc3ccccc23)CC1 (configuration not stated) [NAFTOPIDIL],> 30,> 30,> 30,0.87,,> 30,> 30,> 30,6.01,0.04,> 30
Cc1ccccc1OCC(O)CO (configuration not stated) [MEPHENESIN],> 10,> 30,> 30,> 30,> 30,> 30,> 30,> 30,> 30,> 30,
Cc1oc(=O)oc1CN1CCN(c2cc3c(cc2F)c(=O)c(C(=O)O)c2n3C(C)S2)CC1 (configuration not stated) [PRULIFLOXACIN],> 30,> 30,> 30,> 30,,> 30,> 30,> 30,> 30,> 30,
Cc1cc(NS(=O)(=O)c2ccc(N)cc2)nc(C)n1 [SULFISOMIDINE],> 30,> 30,> 30,> 30,> 30,> 30,3.58,> 30,> 30,> 30,
NC(=O)C[C@H](N)C(=O)O [ASPARAGINE],> 30,> 30,> 30,,> 30,> 30,> 30,> 30,> 30,> 30,
C[S+](CC[C@H](N)C(=O)[O-])C[C@H]1O[C@@H](n2cnc3c(N)ncnc32)[C@H](O)[C@@H]1O (some centres not stated) [ADEMETIONINE],> 30,> 30,> 30,,19.4,> 30,> 30,> 30,> 30,> 30,
CC(C)COC(=O)OCN1C(=O)CN(CCN2CC(=O)N(COC(=O)OCC(C)C)C(=O)C2)CC1=O [SOBUZOXANE],> 30,> 30,> 30,> 30,> 30,> 30,> 30,> 30,> 30,> 30,
CN(C)CCc1c[nH]c2ccc(C[C@H]3COC(=O)N3)cc12 [ZOLMITRIPTAN],,,,> 30,,,,,,,
O=[N+]([O-])O[C@@H]1CO[C@H]2[C@@H]1OC[C@@H]2O [ISOSORBIDE MONONITRATE],> 30,> 30,> 30,> 30,,> 30,> 30,> 30,> 30,> 30,> 30
CC[C@H]1CN2CCc3cc(OC)c(OC)cc3[C@@H]2C[C@@H]1C[C@H]1NCCc2cc(OC)c(OC)cc21 [EMETINE],> 30,> 30,> 30,,,> 30,> 30,> 30,> 30,> 30,> 30
C=CCCCCCCCCC(=O)O [UNDECYLENIC ACID],> 30,> 30,> 30,,,> 30,> 30,> 30,> 30,> 30,
CCC(CC)(CC(=O)Nc1cccc(/C=C/c2nc(C3CCC3)cs2)c1)C(=O)O,> 30,> 30,> 30,> 30,,> 30,> 30,> 30,> 30,> 30,
CN(C)CCC=C1c2ccccc2C=Cc2ccccc21 [CYCLOBENZAPRINE],,,,,,,,,,,> 30
CN(C)CC/C=C1\c2ccccc2CSc2ccccc21 [DOTHIEPIN],,,,1.5,,,,,,,> 30
Clc1cc(Cl)c(OCC#CI)cc1Cl [HALOPROGIN],> 30,> 30,> 30,9.85,> 30,> 30,> 30,> 30,5.12,1.16,
Cc1cc(C)c(NC(=O)CN(CC(=O)O)CC(=O)O)c(C)c1Br [MEBROFENIN],> 30,> 30,> 30,> 30,,> 30,> 30,> 30,> 30,> 30,
COC1=C(OC)C(=O)C(C/C=C(\C)CC/C=C(\C)CC/C=C(\C)CC/C=C(\C)CC/C=C(\C)CC/C=C(\C)CC/C=C(\C)CC/C=C(\C)CC/C=C(\C)CCC=C(C)C)=C(C)C1=O [UBIDECARENONE],> 30,> 30,> 30,> 30,,> 30,> 30,> 30,> 30,> 30,
Clc1ccc(C(OCCN2CCCCC2)c2ccccc2)cc1 (configuration not stated) [CLOPERASTINE],> 30,> 30,> 30,0.2,> 30,> 30,> 30,> 30,6.39,1.05,
CCCCCNC(=N)N/N=C/c1c[nH]c2ccc(OC)cc12 [TEGASEROD],> 30,> 30,> 30,4.8,,> 30,> 30,> 30,0.26,5.62,8.39
COc1cc2nc(N3CCN(C(=O)c4ccco4)CC3)nc(N)c2cc1OC [PRAZOSIN],> 30,> 30,> 30,3.73,,> 30,> 30,> 30,> 30,> 30,> 30
